Test results published in the supplement of paper PMC10477900.
Where a name gives a salt, the structure may show the parent alone.

Legend:
HCT116 [1] = conditions: 72 h
Description: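 HCT116 control and MTA1-KO (CRISPR) HCT116 cells were seeded in 384-well plates (800 cells/well), treated 16 h later with 237 metabolism-related anticancer drugs at five doses (10 uM, 2 uM, 400 nM, 80 nM, 16 nM) for 72 h, two replicates; viability by CCK8. Values are % inhibition of viability relative to untreated cells, plus fitted IC50.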

HCT116 [2] = experiment: viability inhibition vs untreated; higher = more cytotoxic; conditions: 72 h

SMILES | IC50 (HCT116 [1]; genotype: MTA1-KO) [µM] | IC50 (HCT116 [1]; genotype: control) [µM] | viability inhibition (HCT116 [2]; genotype: MTA1-KO, 16 nM) [%] | viability inhibition (HCT116 [2]; genotype: MTA1-KO, 80 nM) [%] | viability inhibition (HCT116 [2]; genotype: MTA1-KO, 400 nM) [%] | viability inhibition (HCT116 [2]; genotype: MTA1-KO, 2000 nM) [%] | viability inhibition (HCT116 [2]; genotype: MTA1-KO, 10000 nM) [%] | viability inhibition (HCT116 [2]; genotype: control, 16 nM) [%] | viability inhibition (HCT116 [2]; genotype: control, 80 nM) [%] | viability inhibition (HCT116 [2]; genotype: control, 400 nM) [%] | viability inhibition (HCT116 [2]; genotype: control, 2000 nM) [%] | viability inhibition (HCT116 [2]; genotype: control, 10000 nM) [%]
O=C(O)[C@@]1(CCCCCCOc2ccc(Cl)cc2)CO1 [(R)-Etomoxir sodium salt] | > 10 | > 10 | -11.4 | -21.5 | -17.4 | -13.9 | 37.6 | 12.3 | 19.7 | 14.6 | 15.3 | 26.1
Nc1nc(Cl)nc2c1ncn2[C@@H]1O[C@H](CO)[C@@H](O)[C@@H]1F [Clofarabine] | 0.257 | 0.141 | -2.4 | 4.43 | 55.5 | 80.4 | 75.8 | -9.53 | -5 | 88.4 | 88.9 | 92.8
COC(=O)N1CCN(Cc2cccc(NC(=O)Nc3ccc(C)nc3)c2F)CC1 [Omecamtiv mecarbil] | > 10 | > 10 | -10 | -12.1 | -17.5 | -17.9 | 8.94 | 8.94 | 4.13 | -7.43 | 1.24 | 5.67
O=C(Oc1cc(S(=O)(=O)c2ccccc2)ccc1[N+](=O)[O-])c1ccc(Cl)cc1 | > 10 | > 10 | 13.8 | 11.7 | 15.7 | 20 | -32.5 | -2.81 | -4.51 | -7.2 | -8.31 | 16.7
COC1CCC(N2C(=O)CNc3ncc(-c4ccc(C(C)(C)O)nc4)nc32)CC1 (centres undefined) [CC223] | > 10 | > 10 | -8.46 | -17.5 | -1.64 | 13.1 | 22.1 | 11.3 | -6.69 | -3.2 | -6.07 | 35.3
Cc1[nH]nc(C(F)(F)F)c1Cc1sc2c(c1C(=O)N1C[C@](C)(O)CO1)c(=O)n(C)c(=O)n2C(C)C [AZD3965] | 0.576 | 0.338 | -7.19 | 25.1 | 22.9 | 31.7 | 47.6 | 0.727 | 24.8 | 21.6 | 40.3 | 45.9
CC[C@H](C)C(=O)O[C@H]1C[C@@H](C)C=C2C=C[C@H](C)[C@H](CC[C@@H]3C[C@@H](O)CC(=O)O3)[C@H]21 [Lovastatin] | > 10 | > 10 | -10.2 | -12.6 | -7.31 | -11.7 | -8.01 | 2.13 | -3.28 | 8.89 | 5.64 | 29.4
CO[C@H]1C[C@@H]2CC[C@@H](C)[C@@](O)(O2)C(=O)C(=O)N2CCCC[C@H]2C(=O)O[C@H]([C@H](C)C[C@@H]2CC[C@@H](OC(=O)C(C)(CO)CO)[C@H](OC)C2)CC(=O)[C@H](C)/C=C(\C)[C@@H](O)[C@@H](OC)C(=O)[C@H](C)C[C@H](C)/C=C/C=C/C=C/1C [Temsirolimus] | < 0.016 | > 10 | 56.3 | 49.2 | 48.4 | 46.7 | 60.5 | 12 | 10.7 | 8.05 | -1.62 | 46.1
CNCc1cc(-c2ccccc2F)n(S(=O)(=O)c2cccnc2)c1 [Vonoprazan fumarate] | > 10 | > 10 | 12 | -19.8 | -19.3 | -21.7 | -12.1 | -12.5 | -10.5 | -14.4 | -16 | 11.8
NS(=O)(=O)C#Cc1ccccc1 [Pifithrin-μ] | > 10 | > 10 | -6.33 | -6.69 | -11.6 | -13.4 | -5.71 | 12.9 | -14.1 | -16.5 | -18.1 | 20.2
N[C@@H]1C[C@H]1c1ccccc1 [Tranylcypromine (2-PCPA) hydrochloride] | > 10 | > 10 | -22.8 | -17.9 | -14.3 | -18.2 | -15.3 | -0.159 | -12.9 | -1.62 | -5.71 | -28
CC(=O)N=c1sc(S(N)(=O)=O)nn1C [Methazolamide] | > 10 | > 10 | -8.89 | -28.2 | -14.6 | -23.2 | -21.9 | 6.26 | -6.63 | -3.65 | -3.04 | -0.243
Cc1ccc(S(=O)(=O)Cc2nc(-c3ccc(C(=O)NCc4cccnc4)cc3)oc2C)cc1 | > 10 | > 10 | 5.08 | -6.5 | -22.3 | -11.9 | 2.23 | 9.95 | 6.71 | 18.9 | 19 | 26.9
C/C(=N\NC(=O)c1cccc(S(=O)(=O)N2CCOCC2)c1)c1cc(Cl)ccc1O [SP2509] | 0.69 | 0.493 | 13 | 7.45 | 18 | 98.5 | 99.6 | -5.87 | -2.4 | 14.8 | 104 | 103
CC(C)n1nc(-c2ccc3oc(N)nc3c2)c2c(N)ncnc21 [INK 128] | 1.04 | < 0.016 | -1.98 | 6.98 | 33.7 | 44.4 | 70 | 52.9 | 40.8 | 50.1 | 52.3 | 76.6
O=C(O)c1nn(Cc2ccc(Cl)cc2Cl)c2ccccc12 [Lonidamine] | > 10 | > 10 | -2.77 | -15.4 | -12.8 | -13.1 | 17.1 | 4.32 | -14 | -10.1 | 0.337 | 23.5
O=C(Nc1cccc(C(F)(F)F)c1)Nc1cc(S(=O)(=O)NC2CC2)ccc1-c1ccsc1 [AGI6780] | > 10 | > 10 | 4.84 | -6.61 | 9.84 | 15.6 | 49.9 | 13.6 | 18.2 | 3.86 | 16.8 | 22.5
CC(C)n1nc(-c2cc3cc(O)ccc3[nH]2)c2c(N)ncnc21 [Torkinib] | > 10 | 8.06 | -28.4 | -28.6 | -28.2 | -9.28 | 27.1 | -1.58 | -1.28 | -0.73 | 8.7 | 65.9
O=C1CC(c2c[nH]c3ccc(F)cc23)C(=O)N1 (centres undefined) | > 10 | > 10 | 7.19 | 3.94 | 6.53 | 3.06 | 34 | 15.5 | -12.9 | -15.6 | -1.97 | 11.6
CC(C)c1c(C(=O)Nc2ccccc2)c(-c2ccccc2)c(-c2ccc(F)cc2)n1CC[C@@H](O)C[C@@H](O)CC(=O)O [Atorvastatin Calcium] | > 10 | > 10 | -2.27 | -15.2 | -21.3 | -22.7 | -6.12 | 6.18 | -8.85 | -7.43 | -3.65 | 17
O=c1oc2c(O)c(O)cc3c(=O)oc4c(O)c(O)cc1c4c23 [Ellagic acid] | > 10 | > 10 | -9.03 | -12.1 | -9.22 | -2.14 | -6.22 | -17.2 | -19 | -17.4 | -13.6 | -11.3
Cc1c(CN2CCN(c3cccc(C(F)(F)F)c3)CC2)cc(-c2ccccc2)n1NC(=O)c1ccncc1 [Sudoterb free base] | > 10 | > 10 | -13.3 | -15.8 | -16 | -17 | 44.1 | -4.96 | 1.24 | -11 | -15 | -4.96
Cc1c(CN2CCN(C(=O)[C@H](C)O)CC2)sc2c(N3CCOCC3)nc(-c3cnc(N)nc3)nc12 [Apitolisib] | 0.471 | 0.268 | -11.5 | 2.04 | 38.8 | 65.3 | 82.6 | 0.365 | 0.791 | 60.6 | 70.1 | 80.4
COc1ccccc1OCC(O)COC(N)=O (centres undefined) [Methocarbamol] | > 10 | > 10 | -9.86 | -16.2 | -9.99 | -8.84 | -12 | -5.51 | -3.73 | -0.351 | 5.2 | 11
COCCNC(=O)Nc1ccc2nc(-c3cccs3)c(-c3cccs3)nc2c1 [Ac-CoA Synthase Inhibitor1] | > 10 | > 10 | -8.17 | 14.9 | 15 | 10.1 | 6.2 | 3.53 | 9.39 | -0.277 | -10.1 | 8.5
COc1ccc2[nH]c([S@@+]([O-])Cc3ncc(C)c(OC)c3C)nc2c1 [Esomeprazole Sodium] | > 10 | > 10 | 3.92 | 2.7 | 7.98 | 6.88 | 10.1 | 27 | 8.16 | -3.32 | 4.21 | 12
CC1(C)OCCn2c1nc1c(N3CCOCC3)nc(-c3cnc(N)nc3)nc12 [GDC0084] | 0.327 | 0.356 | -2.94 | 9.67 | 48 | 77.1 | 83.3 | 7.86 | 5.85 | 42.9 | 78.2 | 76.1
